The values that follow come from patent US20080249317A1 (APOTEX INC., priority 2007, published 2008).

Structures can show the parent of a compound that is named as a salt.

For series [1] the following is noted: acidic medium such as gastric fluid; background statement; cited from earlier work.
A short description of series [2]: Dissolution of 1 gram of crystalline carvedilol phosphate in methanol. The series is classed as physicochemical. The source says:
The improved solubility by the addition of acetic acid is exemplified by the following results.

Consider `COc1ccccc1OCCNCC(O)COc1cccc2[nH]c3ccccc3c12` (stereo not drawn) [hydrochloride salt, 1,1-(9H-Carbazol-4-yloxy)-3-[[2-(2-methoxyphenoxy)ethyl]amino]-2-propanol], for which the solubility result in series [1] was “reduced solubility”.
Turning to “carvedilol phosphate [crystalline carvedilol phosphate]”, in series [2] (containing 2% acetic acid (w/w relative to the carvedilol), solution formed rapidly), the “methanol in which a solution was formed” value turned out to be 3 mL. The “methanol required for dissolution” value in series [2] (in the absence of acetic acid) is “about 100 mL”.
